Source: patent US7473699B2, “3-cyclyl-5-(nitrogen-containing 5-membered ring)methyl-oxazolidinone derivatives and their use as antibacterial agents” (AstraZeneca AB, priority 2002, dated 2009)
pKi: −log10 of the molar value. Converted amounts (≈) assume the structure as drawn. Read-outs that look alike come from different tables or passages of the source.

Tests used:
Streptococcus pneumoniae = experiment: MIC, agar-dilution, Streptococcus pneumoniae; assay type: cell-based
Protocol: (§1) The following results were obtained on a standard in-vitro test system. The activity is described in terms of the minimum inhibitory concentration (MIC) determined by the agar-dilution technique with an inoculum size of 10^4 CFU/spot. Typically, compounds are active in the range 0.01 to 256 μg/ml.
(§2) Streptococci and enterococci were tested on agar supplemented with 5% defibrinated horse blood, an inoculum of 10^4 CFU/spot and an incubation temperature of 37° C. in an atmosphere of 5% carbon dioxide for 48 hours—blood is required for the growth of some of the test organisms. Fastidious Gram negative organisms were tested in Mueller-Hinton broth, supplemented with hemin and NAD, grown aerobically for 24 hours at 37° C., and with an innoculum of 5×10^4 CFU/well.

Moraxella catarrhalis = experiment: MIC, fastidious Gram negative organisms in Mueller-Hinton broth, Moraxella catarrhalis; assay type: cell-based
Protocol: as §1, §2

MAO-A = target: T1, MAO-A (Homo sapiens, UniProt P21397); experiment: MAO-A standard in-vitro assay, human liver enzyme expressed in yeast; assay type: biochemical
T1 construct: made in house; host or cells: yeast
T1 sequence (P21397 1-527): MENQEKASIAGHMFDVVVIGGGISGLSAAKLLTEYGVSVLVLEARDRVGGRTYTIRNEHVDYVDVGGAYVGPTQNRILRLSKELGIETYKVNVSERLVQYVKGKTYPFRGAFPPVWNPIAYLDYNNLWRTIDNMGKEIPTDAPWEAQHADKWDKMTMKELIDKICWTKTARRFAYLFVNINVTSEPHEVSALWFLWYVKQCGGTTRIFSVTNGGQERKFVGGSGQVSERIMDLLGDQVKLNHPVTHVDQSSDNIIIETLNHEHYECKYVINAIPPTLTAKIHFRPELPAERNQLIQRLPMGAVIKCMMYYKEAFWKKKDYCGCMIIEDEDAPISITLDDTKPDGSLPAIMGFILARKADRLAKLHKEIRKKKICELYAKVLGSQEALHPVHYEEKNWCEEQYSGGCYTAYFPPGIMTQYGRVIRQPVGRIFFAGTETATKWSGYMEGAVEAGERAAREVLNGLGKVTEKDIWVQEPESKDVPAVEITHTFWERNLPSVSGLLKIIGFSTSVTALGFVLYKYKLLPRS
Protocol: The activity of the compounds of the invention against MAO-A was tested using a standard in-vitro assay based on human liver enzyme expressed in yeast as described in Biochem. Biophys. Res. Commun. 1991, 181, 1084-1088. Ki values were determined using serial two-fold dilutions from […] to 0.04 μM.

[1] = test system: Staphylococcus aureus MSQS; experiment: MIC, agar-dilution, Staphylococcus aureus MSQS; assay type: cell-based; conditions: Staphylococcus aureus MSQS (methicillin sensitive and quinolone sensitive)
Protocol: as §1
(§3) Staphylococci were tested on agar, using an inoculum of 10^4 CFU/spot and an incubation temperature of 37° C. for 24 hours—standard test conditions for the expression of methicillin resistance.

Streptococcus pyogenes = experiment: MIC, agar-dilution, Streptococcus pyogenes; assay type: cell-based
Protocol: as §1, §2

[2] = test system: Staphylococcus aureus MRQR; experiment: MIC, agar-dilution, Staphylococcus aureus MRQR; assay type: cell-based; conditions: Staphylococcus aureus MRQR (methicillin resistant and quinolone resistant)
Protocol: as §1, §3

Haemophilus influenzae = experiment: MIC, fastidious Gram negative organisms in Mueller-Hinton broth, Haemophilus influenzae; assay type: cell-based
Protocol: as §1, §2

[3] = first line (strain not given), read-out: MIC

Compound | MIC (Streptococcus pneumoniae; [3]) [µg/mL] | MIC (Streptococcus pneumoniae; second line (strain not given)) [µg/mL] | MIC (Moraxella catarrhalis) [µg/mL] | pKi (MAO-A) | MIC [1] [µg/mL] | MIC (Streptococcus pyogenes) [µg/mL] | MIC [2] [µg/mL] | MIC (Haemophilus influenzae) [µg/mL]
O=C1O[C@@H](Cn2ccnn2)CN1c1ccc(C2=CC[S+]([O-])CC2)c(F)c1 (some centres unmarked) [Reference Example 1] | 1 (≈ 2.66 µM) | 1 (≈ 2.66 µM) | 2 (≈ 5.31 µM) | 5.44 | 2 (≈ 5.31 µM) | 1 (≈ 2.66 µM) | 2 (≈ 5.31 µM) | 4 (≈ 10.6 µM)
CC(=O)NC[C@H]1CN(c2ccc(C3=CC[S+]([O-])CC3)c(F)c2)C(=O)O1 (some centres unmarked) [Reference Example 2] |  |  |  | 6.30 |  |  |  | 
Cc1cn(C[C@H]2CN(c3ccc(C4=CC[S+]([O-])CC4)c(F)c3)C(=O)O2)nn1 (mixture of isomers) [Example 1, (5R)-3-[4-(1(R,S)-Oxo-3,6-dihydro-2H-thiopyran-4-yl)-3-fluorophenyl]-5-[(4-methyl)-1,2,3-triazol-1-ylmethyl]oxazolidin-2-one] | 0.5 | 0.5 | 2 | 4.80 | 2 | 1 | 4 | 2
